Read-outs that look alike come from different tables or passages of the source.
Key:
[1] = system: multidrug resistant N6ADR cells; experiment: N6ADR tumor volume in mice (Example 2, FIG. 9); format: in vivo; conditions: for effect on tumor volume with paclitaxel (chemosensitization): antibody dosed about 1-4 hrs prior to paclitaxel; for effect on tumor volume without paclitaxel: antibody on day 0, 4, 7, 11, no chemotherapeutic agent
Protocol: N6ADR cells were injected into a cohort of 6 mice per test group prior to administration of the indicated antibodies. The antibodies were administered once palpable tumors reached a size of about 100-150 mm^3 (about 7 days after injection of tumor cells). Antibodies were administered on day 0, day 4, day 7, and day 11. Tumor volumes were measured and are plotted. Panel A: 15D3/MRK16 monoclonal anti-MDR1 antibody. Panel B: KT14/MRK16 monoclonal anti-CD47 antibody. Panel C: Co-administration of 15D3/MRK16 monoclonal anti-MDR1 antibody and KT14/MRK16 monoclonal anti-CD47 antibody. Panel D: KbisP1.1 antibody.
The indicated antibodies were administered with or without the chemotherapeutic agent paclitaxel. Antibody was dosed about 1-4 hrs prior to Paclitaxel.

[2] = system: human red blood cells (RBCs); experiment: Binding to human erythrocytes; conditions: FIG. 22A; in contrast to anti-CD47 5F9
cynomolgus RBCs = experiment: Binding to cynomolgus erythrocytes; conditions: FIG. 22B; in contrast to anti-CD47 5F9
N6/ADR cells = experiment: Vincristine cytotoxicity assay; format: cell-based; conditions: Homo sapiens; Table 5; vincristine titrated with antibody at 100 μg/mL (2× final concentration); 72 hr
Protocol: Cytotoxicity Assays. The effect of antibodies on vincristine cytotoxicity was evaluated on N6/ADR, a doxorubicin-selected, B1-positive variant of the human acute lymphoblastic leukemia (ALL) cell line, NALM6. Cells were plated in 0.05 mL of Assay Media (RPMI-1640+10% FBS) at 5000 cells/well in white flat bottom 96-well tissue culture plates. Vincristine was prepared at 2× final assay concentration by serial dilution from 200 uM in assay media containing test antibodies or control antibodies at 100 μg/mL (2× final concentration), or valspodar, a small molecule B1 inhibitor at 7 uM (2× final concentration). An equivalent volume (0.05 mL) of the vincristine/antibody mixture was added to the N6/ADR cells in 96-well plates. The plates were then incubated at 37° C., in 5% CO2. After 72 hr plates were equilibrated to room temperature and cell viability assessed using Promega® CellTiter-Glo® Luminescent Cell Viability Assay according to the manufacturer's recommended protocol. Luminescence was measured on a Molecular Devices® FlexStation® 3 Multi-Mode Microplate Reader and data analyzed using GraphPad Prism 8.0 software.

NALM6 cells = experiment: NALM6 subcutaneous tumors in SCID-Beige mice; format: in vivo; conditions: paclitaxel 5 mg/kg and 20 mg/kg
Protocol: NALM6 subcutaneous tumors: Mice were randomized into three groups of five mice each—(i) Control vehicle, (ii) 5 mg/kg and (iii) 20 mg/kg of paclitaxel.

NALM6 ADR cells = system: NALM6 ADR cells
Description: Cells: NALM6 (ATCC) and NALM6 ADR (ATCC), B cell precursor lymphoblastic leukemia cell lines used in this study. NALM6 ADR is a multidrug resistant cell line derived from NALM6 cells.
Mice: Sixty-five 5-6-weeks-old female SCID-Beige mice (Charles River) were used in this study.
Inoculation-2×10^6 cells diluted in PBS:Matrigel (1:1) were subcutaneously injected using a 27G insulin syringe into fifty anesthetized 5-6-week-old female SCID-Beige mice under sterile conditions.
NALM6 ADR subcutaneous tumors: Mice were randomized into nine groups of five mice each—(i) Control isotype IgG1 15 mg/kg, (ii) Control isotype IgG1 15 mg/kg and 5 mg/kg of paclitaxel, (iii) Control isotype IgG1 15 mg/kg and 20 mg/kg of paclitaxel, (iv) BisP1.1 15 mg/kg, (v) BisP1.1 15 mg/kg and 5 mg/kg of paclitaxel, (vi) BisP1.1 15 mg/kg and 20 mg/kg of paclitaxel (vii) Valspodar 20 mg/kg (viii) Valspodar 20 mg/kg and 5 mg/kg of paclitaxel and (ix) Valspodar 20 mg/kg and […]. Antibody, Valspodar and paclitaxel were dosed intraperitoneally twice a week for four consecutive weeks. Antibody/valspodar were injected at least 4 hours prior to paclitaxel injection. Paclitaxel preparation: Since paclitaxel is poorly soluble, a master stock of 50 mg/ml was prepared in absolute ethanol:Kolliphor (1:1). Prior to injection the stock was diluted to recommended doses of 5 mg/kg or 20 mg/kg with PBS maintaining a ratio of (1:16).
Measurements: Tumor measurements were done thrice a week using a calibrated Vernier Caliper and tumor volume calculated as per the formula ½*L*S*S where L is the long axis and s is the short axis of the tumor. Body weights were recorded before treatment started and were continuously monitored throughout the study. Animal survival was evaluated from the first day of treatment until death. To avoid suffering, mice were euthanized when turning moribund according to the above-mentioned predefined criteria: rapid weight loss, loss of ability to ambulate, labored respiration, or inability to drink or feed.
Statistics: Tumor volume and body weights were compared between different experimental groups using exact one-way analysis of variance (ANOVA). Kaplan-Meier survival curves were compared between different treatment groups using the log-rank (Mantel-Cox) test. Statistical analyses were performed using Graph Pad Prism (GraphPad, San Diego, CA, USA) software. The level of significance was set at p<0.05 for all analyses.

[3] = Single dose cynomolgus monkey toxicity study; format: in vivo, cynomolgus monkeys (Macaca fascicularis); conditions: post infusion; paclitaxel 2 mg/kg
Description: Fifteen cynomolgus monkeys (Macaca fascicularis) were enrolled in a single dose study to evaluate KbisP1.1 toxicity.

[4] = biological target: T1, PDL1 (293T cells overexpressing PDL1) (Homo sapiens, UniProt Q9NZQ7); experiment: PDL1 binding using 293T cells overexpressing PDL1
T1 construct: expressed in transfected cells; host or cells: 293T

[5] = biological target: MDR1 (293T cells overexpressing MDR1) (Homo sapiens, UniProt P08183)
Protocol: Binding specificity of the mAbs, Fab and Bispecific IgG1 was tested by FACS using 293T cell lines naturally expressing CD47, 293T naïve cells overexpressing human ABCB1 target, 293T naïve cells having ABCB1 knocked down using Lentiviral RNA vectors, CD47 knock out 293T cells and CD47 knock out 293T cells overexpressing human ABCB1. […] The cells were washed three times with FACS buffer (PBS containing 0.5% BSA). Alexa647 labeled goat anti-human antibody was added as a secondary antibody, and the samples were incubated on ice for another 1 hour. Samples were washed and analyzed using a BD FACS Canto (BD Biosciences).
FACS measurement for MDR1 binding was performed as described in Example 1.

T1 sequence (Q9NZQ7 19-290): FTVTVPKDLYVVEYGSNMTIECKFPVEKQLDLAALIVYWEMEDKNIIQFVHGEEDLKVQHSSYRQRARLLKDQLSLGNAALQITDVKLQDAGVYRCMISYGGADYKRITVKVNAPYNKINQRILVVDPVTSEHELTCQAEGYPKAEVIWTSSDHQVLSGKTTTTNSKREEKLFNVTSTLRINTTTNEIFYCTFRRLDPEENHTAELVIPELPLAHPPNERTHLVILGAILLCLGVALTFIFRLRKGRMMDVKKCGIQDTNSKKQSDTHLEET

Question: With “5F9/MRK16: anti-CD47 antibody with two 5F9 heavy chains and two MRK16 light chains” as the molecule, how does the “effect on tumor volume with paclitaxel (chemosensitization)” value [1] read?
Answer: Its value is “not observed”.

Question: What about the “effect on tumor volume without paclitaxel” value [1] of the same molecule?
Answer: Its value is “no significant effect on tumor volume”.

Question: And the “binding to human erythrocytes” value [2]?
Answer: The value was “does not significantly bind”.

Question: What about the “binding to cynomolgus erythrocytes” value (cynomolgus RBCs) of the same molecule?
Answer: The value was “does not significantly bind”.

Question: Which results are given for “15D3/MRK16: anti-MDR1 antibody with two 15D3 heavy chains and two MRK16 light chains”?
Answer: effect on tumor volume with paclitaxel (chemosensitization) [1]: rendered the chemoresistant N6ADR cells sensitive to paclitaxel; effect on tumor volume without paclitaxel [1]: no significant effect on tumor volume

Question: For `CC[C@]1(O)C[C@H]2CN(CCc3c([nH]c4ccccc34)[C@@](C(=O)OC)(c3cc4c(cc3OC)N(C=O)[C@H]3[C@@](O)(C(=O)OC)[C@H](OC(C)=O)[C@]5(CC)C=CCN6CC[C@]43[C@@H]65)C2)C1` [Vincristine alone, vincristine], which IC50 (N6/ADR cells) is on record?
Answer: The IC50 was 543 nM.

Question: Which tumor growth inhibition (NALM6 cells) does the source give for `CC(=O)O[C@H]1C(=O)[C@@]2(C)[C@H]([C@H](OC(=O)c3ccccc3)[C@]3(O)C[C@H](OC(=O)[C@H](O)[C@@H](NC(=O)c4ccccc4)c4ccccc4)C(C)=C1C3(C)C)[C@]1(OC(C)=O)CO[C@@H]1C[C@@H]2O` [paclitaxel, reference compound] here?
Answer: Its tumor growth inhibition is “significant (p<0.0001) tumor growth inhibition”.

Question: And the tumor growth inhibition (NALM6 ADR cells; paclitaxel 5 mg/kg)?
Answer: Its tumor growth inhibition is “significantly less tumor growth inhibition”.

Question: And the tumor growth inhibition (NALM6 ADR cells; paclitaxel 20 mg/kg)?
Answer: The tumor growth inhibition was “modest inhibition”.

Question: And the “erythema at the infusion site” value [3]?
Answer: The value was “minimal erythema”.

Question: Which body weight (NALM6 ADR cells; valspodar result in combination with paclitaxel 20 mg/kg) does the source give for `C/C=C/C[C@@H](C)C(=O)[C@H]1C(=O)N[C@@H](C(C)C)C(=O)N(C)CC(=O)N(C)[C@@H](CC(C)C)C(=O)N[C@@H](C(C)C)C(=O)N(C)[C@@H](CC(C)C)C(=O)N[C@@H](C)C(=O)N[C@H](C)C(=O)N(C)[C@@H](CC(C)C)C(=O)N(C)[C@@H](CC(C)C)C(=O)N(C)[C@@H](C(C)C)C(=O)N1C` [valspodar, reference compound] here?
Answer: Its body weight is “significant reduction in body weight”.

Question: With atezolizumab as the molecule, how does the EC50 [4] read?
Answer: Its EC50 is 0.29 nM.

Question: Which “binding to MDR1 by FACS” value [5] does the source give for necitumumab here?
Answer: The value was “did not show significant binding”.
